In data set [1] the test system is murine house dust mite model of severe corticosteroid-resistant asthma. Also noted: method as in PMID 28528200. Conditions: i.p. administration; cited from earlier work.
Details of data set [2]: method as in PMID 26206150. Conditions: daily dose of 1200 mg; development terminated; cited from earlier work.
Data set [3] concerns autocatalytic cleavage of pro-caspase-1 (p45) into the p10 subunit. Nature of the data set: Western blot for caspase-1 p10 in LPS + nigericin stimulated mouse BMDM lysates and supernatants. In kind it is cell-based. Conditions: LPS + nigericin treated mBMDMs, compound 10 µM. The procedure:
BMDMs were activated with LPS and nigericin as described above and were lysed in situ with 50 μL of 4× NuPAGE LDS sample buffer (Fisher Scientific, Hampton, NH) + 5% β-mercaptoethanol and prepared for polyacrylamide gel electrophoresis. Samples were run on NuPAGE Bis–Tris gels (Fisher Scientific, Hampton, NH) and transferred to polyvinylidene difluoride (PVDF) membranes (Fisher Scientific, Hampton, NH) using the iBlot® 2 Dry Blotting System (Fisher Scientific, Hampton, NH). Washed PVDF membranes were blocked and then probed with the following primary antibodies: procaspase-1 + p10 + p12 [EPR16883] (Abcam, Cambridge, MA), β-actin (AC-74, Sigma-Aldrich, St. Louis, MO) and NLRP3 [Cryo-2] (AdipoGen Life Sciences, San Diego, CA). Bound primary antibodies were detected using HRP-labeled secondary antibodies and membranes were imaged with an Azure c300 imager (Azure Biosystems, Dublin, CA). Bands were quantitated using ImageJ software.
(In general: A western blot detects proteins with antibodies after separation by electrophoresis.)

On to `CC(C)(O)c1coc(S(=O)(=O)NC(=O)Nc2c3c(cc4c2CCC4)CCC3)c1` [MCC950], for which, in data set [1], the “bronchoalveolar lavage IL-1β concentrations” value is reported as “reduced”, the bronchoalveolar lavage neutrophilia result is “reduced” and the “development of airway hyperresponsiveness” value was “completely prevented”. Also, the “liver safety in the clinic” value in data set [2] was “drug induced liver injury (DILI) detected”. Moreover, the “formation of the caspase-1 p10 subunit (autocatalytic cleavage of pro-caspase-1)” value (“formation of the caspase-1 p10 subunit” for short) in data set [3] is “blocked formation of the p10 subunit and its release from the cell”.
For the molecule `CCOC(=O)C1=CCCC[C@H]1S(=O)(=O)Nc1ccc(F)cc1Cl` [TAK242, ethyl (6R)-6-[N-(2-Chloro-4-fluorophenyl)sulfamoyl]cyclohex-1-ene-1-carboxylate], in data set [3], the “formation of the caspase-1 p10 subunit” value is reported as “did not inhibit the autocatalytic cleavage of pro-caspase-1 into the p10 subunit” and the “p10 component in cell supernatants” value is recorded as “appearance of the p10 component in cell supernatants”.
Turning to `C[C@H](NC(=O)C(=O)Nc1ccccc1C(C)(C)C)C(=O)N[C@@H](CC(=O)O)C(=O)COc1c(F)c(F)cc(F)c1F` [emricasan], the “formation of the caspase-1 p10 subunit” value in data set [3] is on record as “did not inhibit the autocatalytic cleavage of pro-caspase-1 into the p10 subunit”.
